In patent publication US8853203B2, “Diazepinone derivatives” (Novartis AG, priority 2012, dated 2014):

Legend:
human mGluR1 = human mGluR1 (Homo sapiens (Human), UniProt Q13255); assay: mGluR1 antagonism, L-glutamate induced intracellular calcium increase (FLIPR) in CHO cells stably expressing human mGluR1; type: cell-based; conditions: for IC50: L-glutamate induced intracellular calcium, CHO cells expressing human mGluR1, FLIPR
human mGluR5a receptors = human mGluR5a receptors (Homo sapiens (Human), UniProt P41594); assay: inhibition of glutamate-induced elevation of intracellular calcium in L(tk-) cells expressing human mGluR5a; type: cell-based; conditions: for IC50: glutamate-induced intracellular calcium elevation, L(tk-) cells expressing human mGluR5a, read-out: mGluR5 IC50; for inhibition at 2 µM: LTK, read-out: mGluR5 % inhibition at 2 μM
Chain of human mGluR5a receptors (P41594 other isoform, or with tags, fused parts or gaps): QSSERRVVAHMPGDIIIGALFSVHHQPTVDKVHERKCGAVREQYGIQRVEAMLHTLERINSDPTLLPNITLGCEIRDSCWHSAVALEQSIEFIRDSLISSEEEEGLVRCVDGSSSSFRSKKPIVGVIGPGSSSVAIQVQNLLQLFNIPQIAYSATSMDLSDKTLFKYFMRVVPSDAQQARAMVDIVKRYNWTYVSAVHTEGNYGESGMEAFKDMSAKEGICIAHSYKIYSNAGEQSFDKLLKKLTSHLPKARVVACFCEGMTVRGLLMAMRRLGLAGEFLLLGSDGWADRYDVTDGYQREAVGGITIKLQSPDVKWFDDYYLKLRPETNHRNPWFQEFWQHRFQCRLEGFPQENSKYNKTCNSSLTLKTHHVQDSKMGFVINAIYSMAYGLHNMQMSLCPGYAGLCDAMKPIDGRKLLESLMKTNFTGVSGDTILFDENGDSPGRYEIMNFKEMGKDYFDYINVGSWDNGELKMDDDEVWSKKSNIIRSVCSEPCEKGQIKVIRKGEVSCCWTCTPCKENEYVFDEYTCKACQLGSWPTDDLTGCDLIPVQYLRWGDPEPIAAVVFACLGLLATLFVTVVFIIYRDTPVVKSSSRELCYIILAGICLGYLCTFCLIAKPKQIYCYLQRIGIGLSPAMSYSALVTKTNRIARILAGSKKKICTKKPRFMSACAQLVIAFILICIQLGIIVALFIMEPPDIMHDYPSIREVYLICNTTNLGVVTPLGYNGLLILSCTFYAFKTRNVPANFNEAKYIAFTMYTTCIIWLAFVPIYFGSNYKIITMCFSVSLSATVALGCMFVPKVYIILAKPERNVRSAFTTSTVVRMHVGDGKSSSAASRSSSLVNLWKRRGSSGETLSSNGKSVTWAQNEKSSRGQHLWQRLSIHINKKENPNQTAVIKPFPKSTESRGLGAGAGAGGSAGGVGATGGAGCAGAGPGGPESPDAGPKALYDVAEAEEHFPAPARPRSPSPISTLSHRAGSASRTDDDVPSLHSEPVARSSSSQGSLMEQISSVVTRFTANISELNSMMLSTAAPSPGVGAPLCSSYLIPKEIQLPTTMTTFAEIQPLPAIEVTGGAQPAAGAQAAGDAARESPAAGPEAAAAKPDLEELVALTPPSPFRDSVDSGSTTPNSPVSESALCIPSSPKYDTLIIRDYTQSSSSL
Procedure, shortened: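 Compounds tested for inhibition of the glutamate-induced rise in intracellular calcium concentration in L(tk-) cells stably expressing human mGluR5a.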

Chain of human mGluR1 (Q13255 19-1194): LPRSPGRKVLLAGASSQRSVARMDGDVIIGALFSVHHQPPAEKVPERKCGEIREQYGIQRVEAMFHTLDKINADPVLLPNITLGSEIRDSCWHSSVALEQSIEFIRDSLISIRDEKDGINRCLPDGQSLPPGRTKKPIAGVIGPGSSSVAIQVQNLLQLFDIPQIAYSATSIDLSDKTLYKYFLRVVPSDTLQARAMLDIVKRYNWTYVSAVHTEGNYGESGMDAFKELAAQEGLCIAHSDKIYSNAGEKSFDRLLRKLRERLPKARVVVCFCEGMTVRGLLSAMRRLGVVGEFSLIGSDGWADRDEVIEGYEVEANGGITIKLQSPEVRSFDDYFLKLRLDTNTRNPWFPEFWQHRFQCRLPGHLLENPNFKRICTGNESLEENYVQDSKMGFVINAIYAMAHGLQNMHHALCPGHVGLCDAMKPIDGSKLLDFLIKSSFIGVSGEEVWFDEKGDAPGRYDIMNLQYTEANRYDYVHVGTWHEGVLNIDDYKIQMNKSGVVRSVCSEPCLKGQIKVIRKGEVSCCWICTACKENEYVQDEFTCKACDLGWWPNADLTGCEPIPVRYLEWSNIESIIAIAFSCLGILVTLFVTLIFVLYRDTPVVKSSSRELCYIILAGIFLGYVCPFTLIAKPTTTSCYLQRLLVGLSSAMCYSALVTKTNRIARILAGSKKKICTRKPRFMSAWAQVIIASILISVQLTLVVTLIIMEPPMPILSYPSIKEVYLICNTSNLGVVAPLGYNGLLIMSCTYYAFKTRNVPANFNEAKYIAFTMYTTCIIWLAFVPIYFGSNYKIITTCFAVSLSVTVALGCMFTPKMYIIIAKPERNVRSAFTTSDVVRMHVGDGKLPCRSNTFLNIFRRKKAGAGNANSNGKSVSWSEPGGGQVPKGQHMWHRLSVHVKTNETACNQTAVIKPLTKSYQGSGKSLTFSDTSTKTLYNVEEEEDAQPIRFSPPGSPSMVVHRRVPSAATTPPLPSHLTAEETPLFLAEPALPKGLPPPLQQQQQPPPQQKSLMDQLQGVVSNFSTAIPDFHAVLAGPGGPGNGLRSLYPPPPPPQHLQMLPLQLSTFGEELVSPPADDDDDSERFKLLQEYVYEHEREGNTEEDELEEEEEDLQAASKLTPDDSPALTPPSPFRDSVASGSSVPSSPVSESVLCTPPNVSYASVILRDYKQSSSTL

| Compound | inhibition at 10 µM (human mGluR1; CHO) [%] | IC50 (human mGluR5a receptors) [nM] | IC50 (human mGluR1) [nM] | inhibition at 2 µM (human mGluR5a receptors) [%] |
| --- | --- | --- | --- | --- |
| CCCc1cccc2c1CCN1C(=O)CN=C(n3cnc(-c4ncco4)c3)C=C21 [Example 88a, 2-(4-(oxazol-2-yl)-1H-imidazol-1-yl)-9-propyl-7,8-dihydro-[1,4]diazepino[7,1-a]isoquinolin-5(4H)-one] | 24 | 5 | – | – |
| O=C1CN=C(n2cnc(C3CC3)n2)C=C2c3cccc(-c4nccnc4F)c3CCN12 [Example 88b, 2-(3-cyclopropyl-1H-1,2,4-triazol-1-yl)-9-(3-fluoropyrazin-2-yl)-7,8-dihydro-[1,4]diazepino[7,1-a]isoquinolin-5(4H)-one] | – | 20 | > 2000 | – |
| O=C1CN=C(n2cnc(C3CC3)n2)C=C2c3cccc(-c4ncccc4F)c3CCN12 [Example 88c, 2-(3-cyclopropyl-1H-1,2,4-triazol-1-yl)-9-(3-fluoropyridin-2-yl)-7,8-dihydro-[1,4]diazepino[7,1-a]isoquinolin-5(4H)-one] | – | 271 | > 10000 | – |
| O=C1CN=C(n2cnc(C3CC3)c2)C=C2c3cccc(-c4cncs4)c3CCN12 [Example 88d, 2-(4-cyclopropyl-1H-imidazol-1-yl)-9-(thiazol-5-yl)-7,8-dihydro-[1,4]diazepino[7,1-a]isoquinolin-5(4H)-one] | – | 31 | > 2000 | – |
| Cc1ncc(-c2cccc3c2CCN2C(=O)CN=C(n4cnc(C5CC5)c4)C=C32)s1 [Example 88e, 2-(4-cyclopropyl-1H-imidazol-1-yl)-9-(2-methylthiazol-5-yl)-7,8-dihydro-[1,4]diazepino[7,1-a]isoquinolin-5(4H)-one] | – | 34 | 3880 | – |
| O=C1CN=C(n2cnc(C3CC3)c2)C=C2c3cccc(-c4cnccn4)c3CCN12 [Example 88f, 2-(4-Cyclopropyl-1H-Imidazol-1-yl)-9-(pyrazin-2-yl)-7,8-dihydro-[1,4]diazepino[7,1-a]isoquinolin-5(4H)-one] | – | 100 | 1950 | – |
| O=C1CN=C(n2cnc(C3CC3)n2)C=C2c3cccc(-c4nccs4)c3CCN12 [Example 88g, 2-(3-cyclopropyl-1H-1,2,4-triazol-1-yl)-9-(thiazol-2-yl)-7,8-dihydro-[1,4]diazepino[7,1-a]isoquinolin-5(4H)-one] | – | 17 | 761 | – |
| COCCc1cn(C2=NCC(=O)N3CCc4c(cccc4-c4nccs4)C3=C2)cn1 [Example 88h, 2-(4-(2-methoxyethyl)-1H-imidazol-1-yl)-9-(thiazol-2-yl)-7,8-dihydro-[1,4]diazepino[7,1-a]isoquinolin-5(4H)-one] | – | 46 | 1050 | – |
| CCOCc1cn(C2=NCC(=O)N3CCc4c(cccc4-c4nccs4)C3=C2)cn1 [Example 88j, 2-(4-(ethoxymethyl)-1H-imidazol-1-yl)-9-(thiazol-2-yl)-7,8-dihydro-[1,4]diazepino[7,1-a]isoquinolin-5(4H)-one] | – | 56 | 1860 | – |
| O=C1CN=C(n2cnc(C3CC3)c2)C=C2c3cccc(-c4cnccc4F)c3CCN12 [Example 88k, 2-(4-cyclopropyl-1H-imidazol-1-yl)-9-(4-fluoropyridin-3-yl)-7,8-dihydro-[1,4]diazepino[7,1-a]isoquinolin-5(4H)-one] | – | 69 | 5860 | – |
| CCc1cccc2c1CCN1C(=O)CN=C(n3cnc(C(C)C)c3)C=C21 [Example 89, 9-ethyl-2-(4-isopropyl-1H-imidazol-1-yl)-7,8-dihydro-[1,4]diazepino[7,1-a]isoquinolin-5(4H)-one] | – | 28 | 650 | – |
| CCCc1cccc2c1CCN1C(=O)CN=C(n3cnc(C)c3)C=C21 [Example 90, 2-(4-methyl-1H-imidazol-1-yl)-9-propyl-7,8-dihydro-[1,4]diazepino[7,1-a]isoquinolin-5(4H)-one] | – | 10 | 1500 | – |
| COCc1cn(C2=NCC(=O)N3CCc4c(cccc4C4CCC4)C3=C2)cn1 [Example 91, 9-cyclobutyl-2-(4-(methoxymethyl)-1H-imidazol-1-yl)-7,8-dihydro-[1,4]diazepino[7,1-a]isoquinolin-5(4H)-one] | – | 9 | 220 | – |
| Cc1ncn(C2=NCC(=O)N3CCc4c(cccc4C4CCC4)C3=C2)n1 [Example 92, 9-cyclobutyl-2-(3-methyl-1H-1,2,4-triazol-1-yl)-7,8-dihydro-[1,4]diazepino[7,1-a]isoquinolin-5(4H)-one] | – | < 1 | 636 | – |
| COCc1ncn(C2=NCC(=O)N3CCc4c(cccc4C4CC4)C3=C2)n1 [Example 93, 9-cyclopropyl-2-(3-(methoxymethyl)-1H-1,2,4-triazol-1-yl)-7,8-dihydro-[1,4]diazepino[7,1-a]isoquinolin-5(4H)-one] | – | 3 | 1500 | – |
| CC(C)c1cn(C2=NCC(=O)N3CCc4c(-c5ccc(F)nc5)ccnc4C3=C2)cn1 [Example 94, 4-(6-fluoropyridin-3-yl)-11-(4-isopropyl-1H-imidazol-1-yl)-5,6-dihydro-[1,4]diazepino[1,7-h][1,7]naphthyridin-8(9H)-one] | – | 2700 | > 10000 | – |

| Compound | inhibition at 10 µM (human mGluR1; CHO) [%] | IC50 (human mGluR5a receptors) [nM] | IC50 (human mGluR1) [nM] | inhibition at 2 µM (human mGluR5a receptors) [%] |
| --- | --- | --- | --- | --- |
| O=C1CN=C(n2cnc(C3CC3)c2)C=C2c3cccc(-c4ccc(F)nc4)c3CCN12 [Example 95-1, 2-(4-cyclopropyl-1H-imidazol-1-yl)-9-(6-fluoropyridin-3-yl)-7,8-dihydro-[1,4]diazepino[7,1-a]isoquinolin-5(4H)-one] | – | 20 | 10000 | – |
| O=C1CN=C(n2cnc(C3CC3)n2)C=C2c3cccc(-c4ccc(F)nc4)c3CCN12 [Example 95-2, 2-(3-cyclopropyl-1H-1,2,4-triazol-1-yl)-9-(6-fluoropyridin-3-yl)-7,8-dihydro-[1,4]diazepino[7,1-a]isoquinolin-5(4H)-one] | – | 11 | > 10000 | – |
| COCc1cn(C2=NCC(=O)N3CCc4c(cccc4C4CC4)C3=C2)cn1 [Example 96-1, 9-cyclopropyl-2-(4-(methoxymethyl)-1H-imidazol-1-yl)-7,8-dihydro-[1,4]diazepino[7,1-a]isoquinolin-5(4H)-one] | – | 6 | 540 | – |
| COCc1cn(C2=NCC(=O)N3CCc4c(ccc(F)c4C4CC4)C3=C2)cn1 [Example 96-2, 9-cyclopropyl-10-fluoro-2-(4-(methoxymethyl)-1H-imidazol-1-yl)-7,8-dihydro-[1,4]diazepino[7,1-a]isoquinolin-5(4H)-one] | – | 2 | 289 | – |
| O=C1CN=C(n2cnc(C3CC3)c2)C=C2c3cccc(-c4cccnc4F)c3CCN12 [Example 97, 2-(4-cyclopropyl-1H-imidazol-1-yl)-9-(2-fluoropyridin-3-yl)-7,8-dihydro-[1,4]diazepino[7,1-a]isoquinolin-5(4H)-one] | – | 37 | 5900 | – |
| O=C1CN=C(n2cnc(C3CCC3)c2)C=C2c3cccc(-c4cccnc4F)c3CCN12 [Example 98, 2-(4-cyclobutyl-1H-imidazol-1-yl)-9-(2-fluoropyridin-3-yl)-7,8-dihydro-[1,4]diazepino[7,1-a]isoquinolin-5(4H)-one] | – | 14 | 2400 | – |
| O=C1CN=C(n2cnc(C3CC3)c2)C=C2c3cccc(-c4ccc(F)nc4F)c3CCN12 [Example 99, 2-(4-cyclopropyl-1H-imidazol-1-yl)-9-(2,6-difluoropyridin-3-yl)-7,8-dihydro-[1,4]diazepino[7,1-a]isoquinolin-5(4H)-one] | – | 83 | > 2000 | – |
| Cc1cn(C2=NCC(=O)N3CCc4c(cccc4-c4cnc(C)o4)C3=C2)cn1 [Example 99a, 2-(4-methyl-1H-imidazol-1-yl)-9-(2-methyloxazol-5-yl)-7,8-dihydro-[1,4]diazepino[7,1-a]isoquinolin-5(4H)-one] | – | 77 | > 10000 | – |
| O=C1CN=C(n2cnc(C3CC3)c2)C=C2c3cccc(-c4cc(C(F)(F)F)n[nH]4)c3CCN12 [Example 99b, 2-(4-cyclopropyl-1H-imidazol-1-yl)-9-(3-(trifluoromethyl)-1H-pyrazol-5-yl)-7,8-dihydro-[1,4]diazepino[7,1-a]isoquinolin-5(4H)-one] | – | – | > 10000 | 41 |
| O=C1CN=C(n2cnc(C3CC3)c2)C=C2c3cccc(-c4ccc(O)nc4)c3CCN12 [Example 99c, 2-(4-cyclopropyl-1H-imidazol-1-yl)-9-(6-hydroxypyridin-3-yl)-7,8-dihydro-[1,4]diazepino[7,1-a]isoquinolin-5(4H)-one] | – | – | > 10000 | 31 |
| COc1ccc(-c2cccc3c2CCN2C(=O)CN=C(n4cnc(C5CC5)c4)C=C32)cn1 [Example 99d, 2-(4-cyclopropyl-1H-imidazol-1-yl)-9-(6-methoxypyridin-3-yl)-7,8-dihydro-[1,4]diazepino[7,1-a]isoquinolin-5(4H)-one] | – | 347 | > 2000 | – |
| O=C1CN=C(n2cnc(C3CC3)c2)C=C2c3cccc(-c4cc[nH]n4)c3CCN12 [Example 99e, 2-(4-cyclopropyl-1H-imidazol-1-yl)-9-(1H-pyrazol-3-yl)-7,8-dihydro-[1,4]diazepino[7,1-a]isoquinolin-5(4H)-one] | – | 127 | 8260 | – |
| O=C1CN=C(n2cnc(C3CC3)c2)C=C2c3cccc(-c4cnc(F)nc4)c3CCN12 [Example 99f, 2-(4-cyclopropyl-1H-imidazol-1-yl)-9-(2-fluoropyrimidin-5-yl)-7,8-dihydro-[1,4]diazepino[7,1-a]isoquinolin-5(4H)-one] | – | 102 | 12000 | – |
| O=C1CN=C(n2cnc(C3CC3)c2)C=C2c3cccc(-c4ccnc(F)c4)c3CCN12 [Example 99g, 2-(4-cyclopropyl-1H-imidazol-1-yl)-9-(2-fluoropyridin-4-yl)-7,8-dihydro-[1,4]diazepino[7,1-a]isoquinolin-5(4H)-one] | – | 220 | 18200 | – |
| COCc1cn(C2=NCC(=O)N3CCc4c(C5CC5)ccc(F)c4C3=C2)cn1 [Example 99i, 9-cyclopropyl-12-fluoro-2-(4-(methoxymethyl)-1H-imidazol-1-yl)-7,8-dihydro-[1,4]diazepino[7,1-a]isoquinolin-5(4H)-one] | – | 16 | 687 | – |
